In patent publication US10813913B2, “Small molecules that mimic or antagonize actions of granulocyte colony-stimulating-factor (G-CSF)” (UNIVERSITY OF SOUTH FLORIDA, priority 2016, dated 2020):
“Also recorded” adds a separate entry of the source. One block for each compound: values may come before it.

Columns and labels:
[1] = system: PKCδVIII and Bcl2 expressed in SH-SY5Y neuronal cells; experiment: Western blot of PKCδVIII and Bcl2 in SH-SY5Y neuronal cells; assay type: cell-based, human; details: for effect on G-CSF-induced Bcl2 expression / effect on G-CSF-induced PKCδVIII expression / Bcl2 protein expression / PKCδVIII protein expression: SH-SY5Y, 24 h; for effect on G-CSF-induced Bcl2 expression / effect on G-CSF-induced PKCδVIII expression: co-incubation with G-CSF 100 ng/mL; for Bcl2 protein expression / PKCδVIII protein expression: compound alone, three concentrations; for agonist/antagonist profile at the G-CSF receptor: neuronal cell line (SH-SY5Y)
Experimental: (§1) THP-1 cells or SH-SY5Y cells 3×10^6 cells in 5 mL media in a 25 cm^2 flask were treated with 100 ng/mL G-CSF or three different concentrations of the test drug for 24 h. In addition, a set of flasks were co-incubated with the combination of G-CSF and 3 concentrations of test drug. Whole cell lysates ([…]) were separated on 10% polyacrylamide gel electrophoresis-SDS (PAGE-SDS). Proteins were electrophoretically transferred to nitrocellulose membranes, blocked with 5% nonfat milk prepared on Tris buffered saline containing 0.1% Tween 20, washed and incubated with a polyclonal antibody against either Bcl2 (Cell Signaling, Danvers, Mass.) or PKCδVIII-specific polyclonal antibody (Jiang, K., et al. Biochemistry 2008, 47, 787-797). The house keeping gene GAPDH was used as an internal standard. Following incubation with anti-rabbit IgG-HRP, enhanced chemiluminesence (Pierce™, Thermo Scientific, Walthahm, Mass.) was used for detection and the gels were analyzed using UN-SCAN-IT™ software (Silk Scientific, Inc., Orem, Utah).
(§2) Statistical analysis. Densitometric results from Western blots were analyzed with two-tailed t-tests when only two groups were compared. In other analyses where 3 groups were compared, one-way ANOVA followed by t-tests with Dunnett's corrections for multiple comparisons was utilized. All data was presented as mean±SEM. All statistical analysis of data was done via PRISM4 or PRISM5 statistical analysis software (GraphPad Prism, La Jolla, Calif.). Neurohistologic analyses are performed using ANOVA. All comparisons were considered significant at level of P<0.05.

[2] = target: T1, G-CSF receptor expressed on human monocytes (Homo sapiens, UniProt Q99062); experiment: Competition/displacement of [125I]-G-CSF from its receptor on monocytes; assay type: binding; details: monocytic cells
T1 construct: Both cell lines are known to express the G-CSF-R; host or cells: THP-1 (human monocytic cell line), intact cells
T1 sequence (Q99062 25-836): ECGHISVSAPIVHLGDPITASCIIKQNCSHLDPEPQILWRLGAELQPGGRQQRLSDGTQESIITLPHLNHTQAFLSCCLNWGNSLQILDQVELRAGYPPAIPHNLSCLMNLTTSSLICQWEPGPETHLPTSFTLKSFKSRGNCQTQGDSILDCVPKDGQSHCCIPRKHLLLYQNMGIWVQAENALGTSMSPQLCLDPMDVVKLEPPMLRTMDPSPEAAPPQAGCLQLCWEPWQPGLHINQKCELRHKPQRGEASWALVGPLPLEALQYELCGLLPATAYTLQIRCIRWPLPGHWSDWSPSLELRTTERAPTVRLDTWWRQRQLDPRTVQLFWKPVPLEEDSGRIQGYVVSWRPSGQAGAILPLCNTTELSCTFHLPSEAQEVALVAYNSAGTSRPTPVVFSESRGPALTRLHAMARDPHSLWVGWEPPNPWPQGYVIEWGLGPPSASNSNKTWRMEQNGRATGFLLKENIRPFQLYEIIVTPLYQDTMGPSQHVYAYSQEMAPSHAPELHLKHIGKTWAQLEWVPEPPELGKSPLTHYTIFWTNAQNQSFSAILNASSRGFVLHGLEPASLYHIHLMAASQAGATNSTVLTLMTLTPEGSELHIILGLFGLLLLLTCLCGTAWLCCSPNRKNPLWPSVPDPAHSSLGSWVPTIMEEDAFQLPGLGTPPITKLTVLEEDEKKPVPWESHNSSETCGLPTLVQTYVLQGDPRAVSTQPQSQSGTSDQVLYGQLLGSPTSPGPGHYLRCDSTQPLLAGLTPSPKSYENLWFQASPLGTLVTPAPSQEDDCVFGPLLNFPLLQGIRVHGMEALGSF
Experimental: Cells, prepared as described above, were incubated in 180 μL of binding medium containing 0.2% BSA, 5 mM MgSO4 and 50 mM Hepes, pH 7.2 at a concentration of 1.5×10^7 cells/mL and the appropriate concentration of [^125I]-G-CSF. This was followed by addition of increasing concentrations of each study compound (10 to 3000 nM). After 2 hrs of incubation, the amount of bound and free [^125I]-G-CSF was determined, as described above. […] Each concentration was analyzed in triplicate and experiments were repeated three times. These experiments were conducted in human monocytic and neuronal cell lines.
Displacement studies were then conducted for each of the 10 compounds. […] Compounds 6 and 10, which displaced greater than 75% of the ^125I-G-CSF, were further studied for their capacity to mimic or block the intracellular signaling triggered by the natural ligand.

[3] = system: PKCδVIII and Bcl2 expressed in THP-1 monocytic cells; experiment: Western blot of PKCδVIII and Bcl2 in THP-1 monocytic cells; assay type: cell-based, human; details: for effect on G-CSF-induced Bcl2 expression / effect on G-CSF-induced PKCδVIII expression: THP-1, co-incubation with G-CSF 100 ng/mL; for effect on G-CSF-induced Bcl2 expression / effect on G-CSF-induced PKCδVIII expression / Bcl2 protein expression / PKCδVIII protein expression: 24 h; for Bcl2 protein expression / PKCδVIII protein expression: THP-1, compound alone, three concentrations; for agonist/antagonist profile at the G-CSF receptor: monocytic cell line (THP-1)
Experimental: as §1, with “In” for “THP-1 cells or SH-SY5Y cells 3×10^6 cells in 5 mL media in a 25 cm^2 flask were treated with 100 ng/mL G-CSF or three different concentrations of the test drug for 24 h. In”
as §2

IC50 [2]: 13.7 nM
SMILES: COc1ccc2[nH]cc(C3NC(N)=Nc4nc5ccccc5n43)c2c1 (stereo not shown) [Compound 6, 4-(5-methoxy-1H-indol-3-yl)-3,4-dihydro-[1,3,5]-triazino-[1,2a]benzimidazol-2-amine]
effect on G-CSF-induced Bcl2 expression [1]: did not change the expression of either Bcl2 or PKCδVIII | effect on G-CSF-induced PKCδVIII expression [1]: did not change the expression of either Bcl2 or PKCδVIII | Bcl2 protein expression [1]: significantly increased Bcl2 protein expression at the low and intermediate, but not the high concentration; also recorded: at the highest concentration increases PKCδVIII without changing Bcl2 expression | PKCδVIII protein expression [1]: stimulated PKCδVIII protein expression to levels equivalent to G-CSF alone; also recorded: at the highest concentration increases PKCδVIII | agonist/antagonist profile at the G-CSF receptor [1]: did not act as an antagonist of G-CSF action; also recorded: appear to act as agonists at the G-CSF receptor | effect on G-CSF-induced Bcl2 expression [3]: blocked the increase in Bcl2 and PKCδVIII protein expression | effect on G-CSF-induced PKCδVIII expression [3]: blocked the increase in Bcl2 and PKCδVIII protein expression | Bcl2 protein expression [3]: increased expression of Bcl2 | PKCδVIII protein expression [3]: but not PKCδVIII at all 3 concentrations | agonist/antagonist profile at the G-CSF receptor [3]: mixed agonist/antagonist

IC50 [2]: 2.3 nM
SMILES: NC1=Nc2nc3ccccc3n2C(c2c[nH]nc2-c2cccc([N+](=O)[O-])c2)N1 (stereo not shown) [Compound 10, 4-[3-(3-nitrophenyl)-1H-pyrazol-4-yl]-3,4-dihydro[1,3,5]triazino[1,2-a]-benzimidazol-2-amine]
effect on G-CSF-induced Bcl2 expression [1]: did not block the actions of G-CSF | effect on G-CSF-induced PKCδVIII expression [1]: did not block the actions of G-CSF | Bcl2 protein expression [1]: increased expression of both PKCδVIII and Bcl2 protein to levels equivalent to G-CSF alone | PKCδVIII protein expression [1]: increased expression of both PKCδVIII and Bcl2 protein to levels equivalent to G-CSF alone | agonist/antagonist profile at the G-CSF receptor [1]: appear to act as agonists at the G-CSF receptor; also recorded: appeared to function as a G-CSF agonist | effect on G-CSF-induced Bcl2 expression [3]: blocking the effects of G-CSF on Bcl2 expression; also recorded: at the lowest concentration antagonized the effects of G-CSF | effect on G-CSF-induced PKCδVIII expression [3]: did not antagonize the effects on PKCδVIII protein expression; also recorded: at the lowest concentration antagonized the effects of G-CSF | Bcl2 protein expression [3]: significantly elevating expression of both Bcl2 and PKCδVIII | PKCδVIII protein expression [3]: significantly elevating expression of both Bcl2 and PKCδVIII | agonist/antagonist profile at the G-CSF receptor [3]: mixed agonist/antagonist
